Counter-ions that a name gives are not always drawn. Like-named read-outs stand apart in the source and are kept apart here.
Legend:
[1] = system: S. aureus and coagulase-negative staphylococci; assay: MICs with Staphylococcus species with defined resistance phenotypes; format: cell-based; conditions: for MIC range: in µg/mL
Method: Evaluation of the susceptibility profiles of Compound A against selected isolates was carried out in vitro by broth microdilution methodology using Mueller-Hinton broth medium according to CLSI document M7-A7. CLSI interpretive breakpoints were applied where applicable as directed by CLSI document M100-S17.

[2] = Cytotoxicity colorimetric assay, NIH/3T3; format: cell-based, mouse; conditions: mouse, NIH/3T3 cells; one hour in serum-free media
Method: (§1) Cytotoxicity of Compound A was evaluated in a colorimetric assay using a transformed human liver cell line (HepG2, HB-8065) and an embryonic mouse cell line (NIH/3T3 cells, CRL-1658). This assay measures the bioreduction of a novel tetrazolium compound to a soluble formazan product by viable cells. HepG2 cells were seeded in 96 well plates at 2×10^4 cells/well in MEM medium with 10% fetal bovine serum (FBS) 24 hours prior to use. NIH/3T3 cells were seeded in 96 well plates at 2×10^4 cells/well in DMEM medium with 10% bovine calf serum (BCS) 24 hours prior to use. Cell monolayers were rinsed in serum-free media and incubated for one hour with Compound A in serum-free media. After incubation, the media was replaced with serum supplemented media and live cells were measured using the Cell Titer 96 Aqueous […] Assay kit (Promega, Madison, Wis.). EC50 values were determined using a four parameter logistic equation: Y=Bottom+(Top-Bottom)/(1+10^((LogEC50−X)*HillSlope)).

NIH/3T3 cells = assay: Cytotoxicity colorimetric assay, NIH/3T3; format: cell-based, mouse; conditions: vs S. aureus MIC
Method: as §1

MRSA 33591 = assay: Mouse thigh burden model against MRSA 33591; format: in vivo
S. aureus (ATCC 13709) = assay: Mouse sepsis model, S. aureus infection; format: in vivo; conditions: for protection from mortality: 1 & 7 hr after inoculation, observed 6 days
Method: Sterile saline, vancomycin, or Compound A were administered to separate groups of 8-week old female CD-1 mice (8 mice/group) 1 and 7 hours after i.p. injections of S. aureus (ATCC 13709, 5×10^7 cfu/mL in 5% mucin, 0.5 mL/mouse). Compound A was dissolved in 50%/50% v/v sterile USP purified water/TBS. A suspension of S. aureus was prepared from colonies transferred from the TSA plate to sterile PBS. An aliquot of the stock suspension was added to 5% mucin for a final concentration of about 5×10^7 cfu/mL.

Pharmacokinetics in rats = format: in vivo; conditions: Crl:CD (SD), plasma, iv; rat, 5 mg/kg, i.v. bolus
Method: Crl:CD (SD) rats were administered Compound A by i.v. bolus injection at the indicated dosages. Plasma was prepared from blood samples taken at 9 time points (n=3) over 28 hours. Compound levels were determine by HPLC-MS/MS. All animals were fitted with two jugular vein cannula (JVC), one each for dose administration and blood collection. Each route of administration was dosed as N=3. Animals were supplied with a commercial rodent diet and water ad libitum. Each rat received a bolus dosed via the appropriate route of administration at time zero on the day of dosing.
Each blood sample was collected from the rats via a JVC and placed into chilled polypropylene tubes containing sodium EDTA as an anticoagulant. Samples were centrifuged at a temperature of 4° C. and at a speed of 13,000 rpm for 5 minutes. Samples were maintained chilled throughout processing. Each plasma sample was then transferred into labeled polypropylene tubes, placed on dry ice, and stored in a freezer set to maintain −60° C. to −80° C.
Plasma study samples were extracted and analyzed using a previously developed method. A single standard curve and six replicates of quality control samples at three concentrations were extracted using DMSO containing 0.1% formic acid. Plasma samples (50 μL) were added to 150 μL solvent and centrifuged. Supernatants were analyzed by LC/MSMS using a Perkin Elmer series 200 micropump and PE Sciex API4000 Electrospray mass spectrometer. Standard curves were prepared at concentrations of 10000, 5000, 1000, 500, 250, 100, 50 and 25 ng/mL. Quality control samples were prepared at concentrations of 5000, 500, and 50 ng/mL. The standard curve and quality control samples were prepared from independently prepared stock solutions. At least ⅝ of standards must have accuracy within ±15%, except at the LLOQ where ±20% is acceptable. Two thirds of the batch QCs must have accuracy within ±15% of nominal, and at least one QC must pass at each level in order for the run to be accepted.
Individual plasma concentration versus time data for Compound A was subjected to non-compartmental analysis using the pharmacokinetic program WinNonlin v4.1. Plasma concentrations below the limit of quantitation (25 ng/ml) were assigned a value of zero for pharmacokinetic analysis. Nominal dosing concentrations were used in all calculations.

[3] = Saturation solubility in excipients; format: physicochemical; conditions: for solubility: thermodynamic from solid

Structure (SMILES): N=C(N)NCCCCC(=O)Nc1cc(C(F)(F)F)cc(NC(=O)c2cc(C(=O)Nc3cc(C(F)(F)F)cc(NC(=O)CCCCNC(=N)N)c3O[C@H]3CCNC3)ncn2)c1O[C@H]1CCNC1 [Compound A, pyrimidine-4,6-dicarboxylic acid bis-{[3-(5-guanidino-pentanoylamino)-2-((R)-pyrrolidin-3-yloxy)-5-trifluoromethyl-phenyl]-amide}tetrahydrochloride]
- MIC range ([1]; DAP-NS OXA-R, 5 isolates): 0.5-2
- MIC range ([1]; Drug-suscept., 59 isolates): 0.25-1
- MIC range ([1]; LZD-NS OXA-R, 5 isolates): 0.5-1
- MIC range ([1]; OXA-R, 69 isolates): 0.25-2
- MIC90 ([1]; Staphylococcus aureus, screen of 150 Staphylococci organisms): 0.5 to 2 µg/mL
- MIC range ([1]; VRSA/VISA DAP-NS OXA-R, 3 isolates): 0.5-1
- MIC range ([1]; VRSA/VISA OXA-R, 7 isolates): 0.5-1
- EC50 at 1 h [2]: 430 µg/mL
- Selectivity (EC50/MIC) 3T3 (NIH/3T3 cells): 430
- efficacy in vivo (MRSA 33591): efficacious
- protection from mortality (S. aureus (ATCC 13709); 2×5 mg/kg i.v.): full protection
- protection from mortality (S. aureus (ATCC 13709); 2×10 mg/kg i.v.): full protection
- efficacy relative to vancomycin treatment group (S. aureus (ATCC 13709); 3, 5, 10 mg/kg/dose i.v.): comparable to the vancomycin treatment group
- Cmax (Pharmacokinetics in rats): 89.2 µg/mL
- Vd (Pharmacokinetics in rats): 0.11 L/kg
- clearance (Pharmacokinetics in rats): 0.467 mL/min/kg
- half-life (Pharmacokinetics in rats): 180 min
- behaviour of formulation at saturation ([3]; 0.9% and 1.2% sodium chloride solution): formed a viscous yellow gel
- solubility ([3]; 15% w/v glycerin in purified water, 25 °C, aqueous with cosolvent or surfactant or cyclodextrin, 15% w/v glycerin in purified water, read-out: saturation solubility at 25° C. (free base)): 63.5 mg/mL
- solubility ([3]; 15% w/v propylene glycol in purified water, 25 °C, aqueous with cosolvent or surfactant or cyclodextrin, 15% w/v propylene glycol in purified water, read-out: saturation solubility at 25° C. (free base)): 64.9 mg/mL
- solubility ([3]; 20% w/v Kleptose in purified water, 25 °C, aqueous with cosolvent or surfactant or cyclodextrin, 20% w/v Kleptose in purified water, read-out: saturation solubility at 25° C. (free base)): 79.7 mg/mL
- behaviour of formulation at saturation ([3]; 20-50% w/v propylene glycol in saline): formation of a viscous yellow gel
- solubility ([3]; 25% w/v Captisol in purified water, 25 °C, aqueous with cosolvent or surfactant or cyclodextrin, 25% w/v Captisol in purified water, read-out: saturation solubility at 25° C. (free base)): 64.3 mg/mL
- solubility ([3]; 30% w/v glycerin in purified water, 25 °C, aqueous with cosolvent or surfactant or cyclodextrin, 30% w/v glycerin in purified water, read-out: saturation solubility at 25° C. (free base)): 63.1 mg/mL
- solubility ([3]; 30% w/v propylene glycol and 5 w/v ethanol in purified water, 25 °C, aqueous with cosolvent or surfactant or cyclodextrin, 30% w/v propylene glycol and 5 w/v ethanol in purified water, read-out: saturation solubility at 25° C. (free base)): 43.9 mg/mL
- solubility ([3]; 30% w/v propylene glycol in purified water, 25 °C, aqueous with cosolvent or surfactant or cyclodextrin, 30% w/v propylene glycol in purified water, gelled during centrifugation but liquefied on standing, read-out: saturation solubility at 25° C. (free base)): 59.1 mg/mL
- solubility ([3]; 40% w/v Kleptose in purified water, 25 °C, aqueous with cosolvent or surfactant or cyclodextrin, 40% w/v Kleptose in purified water, read-out: saturation solubility at 25° C. (free base)): 102 mg/mL
- solubility ([3]; 50% w/v glycerin in purified water, 25 °C, aqueous with cosolvent or surfactant or cyclodextrin, 50% w/v glycerin in purified water, read-out: saturation solubility at 25° C. (free base)): 56.8 mg/mL
- solubility ([3]; 50% w/v propylene glycol in purified water, 25 °C, aqueous with cosolvent or surfactant or cyclodextrin, 50% w/v propylene glycol in purified water, read-out: saturation solubility at 25° C. (free base)): 74.7 mg/mL
- saturation solubility at 25° C. (free base) ([3]; Citric Acid/Sodium Citrate (pH 5)): 11.2 mg/mL
- solubility ([3]; DMA, 25 °C, organic solvent or mixture, DMA, read-out: saturation solubility at 25° C. (free base)): 0.6 mg/mL
- solubility ([3]; PEG 400, 25 °C, organic solvent or mixture, PEG 400, read-out: saturation solubility at 25° C. (free base)): 18.5 mg/mL
- solubility ([3]; Tris(hydroxymethyl)aminomethane buffer, 25 °C, pH 7.4, aqueous buffer, pH 7.4, read-out: solubility): 61.4 mg/mL
- solubility ([3]; benzyl alcohol, 25 °C, organic solvent or mixture, Benzyl alcohol, read-out: saturation solubility at 25° C. (free base)): 1.83 mg/mL
- solubility ([3]; citric acid/sodium citrate buffer, 25 °C, pH 3, aqueous buffer, Citric Acid/Sodium Citrate (pH 3), read-out: saturation solubility at 25° C. (free base)): 65.5 mg/mL
- solubility ([3]; citric acid/sodium citrate buffer, 25 °C, pH 5, aqueous buffer, Citric Acid/Sodium Citrate (pH 5), read-out: saturation solubility at 25° C. (free base)): 12.1 mg/mL
- solubility ([3]; ethanol, 25 °C, organic solvent or mixture, Ethanol, read-out: saturation solubility at 25° C. (free base)): 1.13 mg/mL
- solubility ([3]; glycerin, 25 °C, organic solvent or mixture, Glycerin, read-out: saturation solubility at 25° C. (free base)): 53 mg/mL
- solubility ([3]; propylene glycol, 25 °C, organic solvent or mixture, Propylene Glycol, read-out: saturation solubility at 25° C. (free base)): 90 mg/mL
- solubility ([3]; purified water, 25 °C, water, Purified Water, read-out: saturation solubility at 25° C. (free base)): 65 mg/mL
- solubility ([3]; tris(hydroxymethyl)aminomethane HCl buffer, 25 °C, pH 7, aqueous buffer, Tris(hydroxymethyl)amino methane HCl (pH 7.0), read-out: saturation solubility at 25° C. (free base)): 61.4 mg/mL
